B1: S100A8/A9 proteins: S100A8/A9 proteins added in the in vitro migration assay (protein, UniProt P05109 1-93; P06702 1-114, looked up)
Protein S100-A8: MLTELEKALNSIIDVYHKYSLIKGNFHAVYRDDLKKLLETECPQYIRKKGADVWFKELDINTDGAVNFQEFLILVIKMGVAAHKKSHEESHKE
Protein S100-A9: MTCKMSQLERNIETIINTFHQYSVKLGHPDTLNQGEFKELVRKDLQNFLKKENKNEKVIEHIMEDLDTNADKQLSFEEFIMLMARLTWASHEKMHEGDEGPGHHHKPGLGEGTP

Assays:
PMN-MDSC [1] = experiment: T cell proliferation inhibition assay of PMN-MDSC; format: cell-based, mice
Experimental: 6-4) T cell proliferation assay: spleens of OT-1 mice were isolated, single-cell suspensions in PBS (5×10^7 cells/ml) were prepared, and CTV dye with a final concentration of […] was added to obtain a mixture. The mixture was incubated in a 37° C. water bath for 20 minutes, added with 5 times the volume of ice pre-cooled RPMI medium (RPMI-1640+10% FBS), mixed by inversion, stood at room temperature for 5 minutes, centrifuged for 5 minutes at 400 g, and then resuspended in RPMI medium (1×10^6 cells/ml). 80 μl of CTV-labeled cells was added with 40 μl of OVA peptide at a concentration of 100 ng/ml, and then supplemented with 80 μl of RPMI medium. The solution was added to the wells of a 96-well U bottom plate and incubated at 37° C. in a carbon dioxide incubator, and then antibody labeling and flow assay were carried out 48-72 hr later.
6-5) T cell proliferation inhibition assay of PMN-MDSC: spleens of B16 tumor-bearing mice were isolated, single-cell suspensions were prepared and labeled with antibodies, and PMN-MDSC cells (CD45^+/CD11b^+/Lying6G^+) were sorted by flow cytometry and resuspended in RPMI medium (1×10^6 cells/ml). 80 μl of CTV-labeled cells in […]) was added with 40 μl of OVA peptide at a concentration of 100 ng/ml, PMN-MDSC cells, and culture medium. […]

B16 tumor = B16 tumor model with intraperitoneal Tasquinimod; format: in vivo, mice; conditions: for tumor growth: 20 μg/mouse intraperitoneally
Experimental: 7-2) Tumor model: B16 cells (1.5×10^5 cells/mouse) were inoculated into mice subcutaneously, and 20 μg of Tasquinimod/mouse was injected intraperitoneally on day 2. Tumor size was measured every 2-3 days, and tumor growth curves were plotted. Tumors were isolated from mice on day 19, and the percentage of immune cells was determined by flow analysis.

PMN-MDSC [2] = experiment: PMN-MDSC in vitro cell migration assay (Transwell); format: cell-based, mice; conditions: KO PMN-MDSCs, 2 hr
Experimental: 6-2) PMN-MDSC in vitro cell migration assay (Transwell): single-cell suspensions were prepared from isolated spleens of tumor-bearing mice and labeled with antibodies, and PMN-MDSC cells (CD45+/CD11b+/Ly6G+) were sorted. 10^5 PMN-MDSC cells were added to the upper layer of Transwell and then placed in a 37° C. incubator for 2 hr, and then the number of PMN-MDSC cells in the lower layer was analyzed by flow assay to calculate the migration ratio of the cells.
7-1) PMN-MDSC in vitro cell migration assay (Transwell): spleens of B16 tumor-bearing mice were isolated, single-cell suspensions were prepared and labeled with antibodies, and PMN-MDSC cells (CD45+/CD11b+/Lying6G+) were sorted by flow cytometry. 10^5 PMN-MDSC cells were added to the upper layer of Transwell and then placed in a 37° C. incubator, and then S100A8/A9 inhibitor (Tasquinimod) or DMSO control with a final concentration of 1 μg/ml was added, the number of PMN-MDSC cells in the lower layer was analyzed by flow-assay after 2 hr, and the percentage of cell migration was calculated.

Molecule	inhibitory effect of PMN-MDSCs on T cell proliferation (PMN-MDSC [1]; KO PMN-MDSCs)	inhibitory effect of PMN-MDSCs on T cell proliferation (PMN-MDSC [1]; WT PMN-MDSCs)	tumor growth (B16 tumor; CD300LD KO mice)	tumor growth (B16 tumor; WT mice)	proportion of intratumoral PMN-MDSCs (B16 tumor; tumors isolated on day 19, WT and KO mice)	in vitro migration ability of PMN-MDSC (PMN-MDSC [2])
COc1cccc2c1c(O)c(C(=O)N(C)c1ccc(C(F)(F)F)cc1)c(=O)n2C [Tasquinimod]	little effect	significantly reduced the inhibitory effect	barely inhibited tumor growth	inhibited tumor growth	consistent with the changes of tumors	–
B1	–	–	–	–	–	enhance the weakened migration ability

From patent US20250205304A1, “CD300LD INHIBITOR AND USE THEREOF IN THE PREPARATION OF TUMOR IMMUNOTHERAPY PRODUCTS” (FUDAN UNIVERSITY, priority 2021, published 2025)
